Experimental data reported in US11739098B2 (BRISTOL-MYERS SQUIBB COMPANY, priority 2017, dated 2023).

What was measured:
Assay type in all cases: cell-based
human TLR7 = molecular target: T1, human TLR7 (Homo sapiens, UniProt Q9NYK1); assay: TLR7 inhibition reporter assay (HEK-Blue cells, SEAP reporter, gardiquimod stimulation); settings: HEK-Blue cells overexpressing human TLR7, SEAP reporter, gardiquimod 7.5 μM
T1 construct: host or cells: HEK-Blue cells (HEK293-derived reporter line)
T1 sequence (Q9NYK1 27-1049): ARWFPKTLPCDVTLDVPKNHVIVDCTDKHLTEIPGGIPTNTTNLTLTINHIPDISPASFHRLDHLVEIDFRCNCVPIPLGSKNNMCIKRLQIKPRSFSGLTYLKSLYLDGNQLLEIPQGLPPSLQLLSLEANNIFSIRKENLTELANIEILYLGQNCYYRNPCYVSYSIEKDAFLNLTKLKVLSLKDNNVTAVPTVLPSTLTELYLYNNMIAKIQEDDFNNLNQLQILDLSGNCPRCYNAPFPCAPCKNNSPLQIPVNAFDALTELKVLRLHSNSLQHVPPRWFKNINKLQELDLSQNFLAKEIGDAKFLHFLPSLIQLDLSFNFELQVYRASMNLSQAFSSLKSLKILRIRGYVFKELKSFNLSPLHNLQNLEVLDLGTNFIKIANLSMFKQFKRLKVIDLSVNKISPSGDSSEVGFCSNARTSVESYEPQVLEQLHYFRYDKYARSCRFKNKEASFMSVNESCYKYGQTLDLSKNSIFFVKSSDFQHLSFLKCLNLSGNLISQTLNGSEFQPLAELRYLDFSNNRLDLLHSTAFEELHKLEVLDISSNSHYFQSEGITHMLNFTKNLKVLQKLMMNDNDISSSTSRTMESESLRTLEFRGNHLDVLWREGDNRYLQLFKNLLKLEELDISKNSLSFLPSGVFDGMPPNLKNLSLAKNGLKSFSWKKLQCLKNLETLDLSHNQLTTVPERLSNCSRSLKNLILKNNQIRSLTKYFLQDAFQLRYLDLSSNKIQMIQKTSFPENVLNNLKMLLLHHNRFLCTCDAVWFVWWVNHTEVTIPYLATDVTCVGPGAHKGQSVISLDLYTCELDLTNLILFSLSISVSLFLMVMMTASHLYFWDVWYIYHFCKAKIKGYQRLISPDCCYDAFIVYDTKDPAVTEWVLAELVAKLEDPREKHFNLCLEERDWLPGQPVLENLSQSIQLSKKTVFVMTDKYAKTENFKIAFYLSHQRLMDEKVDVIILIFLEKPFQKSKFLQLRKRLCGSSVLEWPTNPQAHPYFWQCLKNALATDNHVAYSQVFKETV
Outline: (§1)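 HEK-Blue cells overexpressing human TLR7, TLR8 or TLR9 (NF-κB/AP-1-driven SEAP) pre-treated 30 min at room temperature with compound (0.05 nM–50 μM), then stimulated with gardiquimod 7.5 μM (TLR7), R848 15.9 μM (TLR8) or ODN2006 5 nM (TLR9). SEAP read colorimetrically after 22 h at 37 °C; % inhibition calculated.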

human TLR8 = molecular target: T2, human TLR8 (Homo sapiens, UniProt Q9NR97); assay: TLR8 inhibition reporter assay (HEK-Blue cells, SEAP reporter, R848 stimulation); settings: HEK-Blue cells overexpressing human TLR8, SEAP reporter, R848 15.9 μM
T2 construct: host or cells: HEK-Blue cells (HEK293-derived reporter line)
T2 sequence (Q9NR97 27-1041): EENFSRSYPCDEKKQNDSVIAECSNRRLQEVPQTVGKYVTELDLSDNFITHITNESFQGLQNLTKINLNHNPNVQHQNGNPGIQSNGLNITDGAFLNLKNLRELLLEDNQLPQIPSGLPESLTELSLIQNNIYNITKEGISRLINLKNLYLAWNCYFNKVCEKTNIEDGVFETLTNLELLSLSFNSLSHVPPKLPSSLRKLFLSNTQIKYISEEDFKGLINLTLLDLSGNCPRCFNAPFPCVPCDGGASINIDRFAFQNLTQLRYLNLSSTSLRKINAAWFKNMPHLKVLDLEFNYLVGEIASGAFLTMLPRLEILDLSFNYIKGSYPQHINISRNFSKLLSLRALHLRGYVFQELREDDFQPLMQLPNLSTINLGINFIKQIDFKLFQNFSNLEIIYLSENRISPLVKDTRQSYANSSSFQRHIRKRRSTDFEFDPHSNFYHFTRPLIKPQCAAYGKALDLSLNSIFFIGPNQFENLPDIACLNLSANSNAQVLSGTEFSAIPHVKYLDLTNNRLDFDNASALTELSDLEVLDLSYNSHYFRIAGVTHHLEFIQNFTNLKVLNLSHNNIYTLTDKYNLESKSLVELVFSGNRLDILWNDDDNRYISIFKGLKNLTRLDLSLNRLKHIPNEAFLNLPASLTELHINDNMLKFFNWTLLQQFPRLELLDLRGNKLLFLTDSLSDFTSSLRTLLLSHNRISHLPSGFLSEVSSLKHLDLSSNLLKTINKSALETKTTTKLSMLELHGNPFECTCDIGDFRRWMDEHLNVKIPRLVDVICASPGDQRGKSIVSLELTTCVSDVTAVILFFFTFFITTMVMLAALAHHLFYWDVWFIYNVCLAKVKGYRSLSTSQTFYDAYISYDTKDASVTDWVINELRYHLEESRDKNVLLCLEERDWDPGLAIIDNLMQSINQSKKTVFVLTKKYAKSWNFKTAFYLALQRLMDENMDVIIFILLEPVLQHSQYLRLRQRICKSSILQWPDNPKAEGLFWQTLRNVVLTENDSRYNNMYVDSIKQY
Outline: as §1

human TLR9 = molecular target: T3, human TLR9 (Homo sapiens, UniProt Q9NR96); assay: TLR9 inhibition reporter assay (HEK-Blue cells, SEAP reporter, ODN2006 stimulation); settings: HEK-Blue cells overexpressing human TLR9, SEAP reporter, ODN2006 5 nM
T3 construct: host or cells: HEK-Blue cells (HEK293-derived reporter line)
T3 sequence (Q9NR96 26-1032): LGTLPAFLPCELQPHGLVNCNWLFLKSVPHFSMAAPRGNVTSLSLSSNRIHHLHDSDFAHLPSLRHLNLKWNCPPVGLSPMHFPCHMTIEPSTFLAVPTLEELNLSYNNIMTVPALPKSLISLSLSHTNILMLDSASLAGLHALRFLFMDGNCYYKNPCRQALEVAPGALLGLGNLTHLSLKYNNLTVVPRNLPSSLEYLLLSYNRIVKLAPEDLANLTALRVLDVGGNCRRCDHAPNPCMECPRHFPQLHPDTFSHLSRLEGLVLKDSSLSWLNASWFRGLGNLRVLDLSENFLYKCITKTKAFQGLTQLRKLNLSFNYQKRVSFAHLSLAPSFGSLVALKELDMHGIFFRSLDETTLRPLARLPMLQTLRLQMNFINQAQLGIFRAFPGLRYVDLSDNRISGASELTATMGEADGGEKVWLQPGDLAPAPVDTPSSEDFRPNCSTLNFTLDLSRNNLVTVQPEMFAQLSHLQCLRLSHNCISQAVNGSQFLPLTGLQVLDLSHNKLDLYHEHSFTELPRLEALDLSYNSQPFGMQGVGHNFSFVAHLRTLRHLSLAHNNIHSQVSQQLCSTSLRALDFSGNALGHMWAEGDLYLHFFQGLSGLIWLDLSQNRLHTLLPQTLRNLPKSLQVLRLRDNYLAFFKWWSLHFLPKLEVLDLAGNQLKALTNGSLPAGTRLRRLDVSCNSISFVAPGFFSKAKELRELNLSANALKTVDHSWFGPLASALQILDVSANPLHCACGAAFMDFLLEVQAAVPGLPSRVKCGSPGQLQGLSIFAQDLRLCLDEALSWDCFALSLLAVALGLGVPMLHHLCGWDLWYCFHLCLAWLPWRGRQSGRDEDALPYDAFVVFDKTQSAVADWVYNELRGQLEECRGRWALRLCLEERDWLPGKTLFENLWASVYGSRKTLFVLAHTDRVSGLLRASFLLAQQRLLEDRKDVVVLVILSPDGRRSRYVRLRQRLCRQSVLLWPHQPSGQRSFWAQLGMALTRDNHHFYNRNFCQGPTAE
Outline: as §1

Structure (SMILES): CC(C)c1c(-c2ccnc3[nH]cc(O)c23)[nH]c2ccc(C3CCNCC3)cc12 [Example 216, 4-(3-isopropyl-5-(piperidin-4-yl)-1H-indol-2-yl)-1H-pyrrolo[2,3-b]pyridin-3-ol]
- IC50 (human TLR7): 1000 to 50000 nM
- IC50 (human TLR8): 100 to 1000 nM
- IC50 (human TLR9): 1000 to 50000 nM

Structure (SMILES): Cc1cnc2ccc(-c3[nH]c4ccc(C5CCN(C(=O)CN(C)C)CC5)cc4c3C(C)C)cn12 [Example 522, 2-(dimethylamino)-1-(4-(3-isopropyl-2-(3-methylimidazo[1,2-a]pyridin-6-yl)-1H-indol-5-yl)piperidin-1-yl)ethan-1-one]
- IC50 (human TLR7): 100 to 1000 nM
- IC50 (human TLR8): 100 to 1000 nM
- IC50 (human TLR9): 100 to 1000 nM

Structure (SMILES): CCc1c(-c2cnnc3[nH]ccc23)[nH]c2ccc(C3CCNCC3)cc12 [Example 245, 4-(3-ethyl-5-(piperidin-4-yl)-1H-indol-2-yl)-7H-pyrrolo[2,3-c]pyridazine]
- IC50 (human TLR7): 100 to 1000 nM
- IC50 (human TLR8): 100 to 1000 nM
- IC50 (human TLR9): 1000 to 50000 nM

Structure (SMILES): CC(C)c1c(-c2cnc3cn[nH]c3c2)[nH]c2ccc(C3CCNCC3)cc12 [Example 63, 6-(3-isopropyl-5-(piperidin-4-yl)-1H-indol-2-yl)-1H-pyrazolo[4,3-b]pyridine]
- IC50 (human TLR7): < 100 nM
- IC50 (human TLR8): < 100 nM
- IC50 (human TLR9): 100 to 1000 nM

Structure (SMILES): Cc1nc2c(C)cc(-c3[nH]c4ccc(C5CCN(C(=O)CN(C)C)CC5)cc4c3C(C)C)cn2c1C [Example 527, 2-(dimethylamino)-1-(4-(3-isopropyl-2-(2,3,8-trimethylimidazo[1,2-a]pyridin-6-yl)-1H-indol-5-yl)piperidin-1-yl)ethan-1-one]
- IC50 (human TLR7): < 100 nM
- IC50 (human TLR8): 100 to 1000 nM
- IC50 (human TLR9): 100 to 1000 nM

Structure (SMILES): CC(C)c1c(-c2ccc3nc(N)cn3c2)[nH]c2ccc(C3CCNCC3)cc12 [Example 116, 6-(3-isopropyl-5-(piperidin-4-yl)-1H-indol-2-yl)imidazo[1,2-a]pyridin-2-amine]
- IC50 (human TLR7): 100 to 1000 nM
- IC50 (human TLR8): 100 to 1000 nM
- IC50 (human TLR9): 1000 to 50000 nM

Structure (SMILES): CC(C)c1c(-c2c[nH]c3cccnc23)[nH]c2ccc(C3CCNCC3)cc12 [Example 19, 3-(3-isopropyl-5-(piperidin-4-yl)-1H-indol-2-yl)-1H-pyrrolo[3,2-b]pyridine]
- IC50 (human TLR7): 100 to 1000 nM
- IC50 (human TLR8): 1000 to 50000 nM
- IC50 (human TLR9): 100 to 1000 nM

Structure (SMILES): CC(C)c1c(-c2ccn3nncc3c2)[nH]c2ccc(C3CCN(C(=O)CN(C)C)CC3)cc12 [Example 465, 1-(4-(2-([1,2,3]triazolo [1,5-a]pyridin-5-yl)-3-isopropyl-1H-indol-5-yl)piperidin-1-yl)-2-(dimethylamino)ethan-1-one]
- IC50 (human TLR7): < 100 nM
- IC50 (human TLR8): 100 to 1000 nM
- IC50 (human TLR9): 1000 to 50000 nM

Structure (SMILES): CC(C)c1c(-c2ccnc3[nH]ncc23)[nH]c2ccc(C3CCN(Cc4cnc5ccccc5c4)CC3)cc12 [Example 895, 3-((4-(3-isopropyl-2-(1H-pyrazolo[3,4-b]pyridin-4-yl)-1H-indol-5-yl)piperidin-1-yl)methyl)quinoline]
- IC50 (human TLR7): 100 to 1000 nM
- IC50 (human TLR8): < 100 nM
- IC50 (human TLR9): 1000 to 50000 nM

Structure (SMILES): CC(C)c1c(-c2ccnc3[nH]ncc23)[nH]c2ccc(C3CCN(Cc4cccnc4)CC3)cc12 [Example 907, 4-(3-isopropyl-5-(1-(pyridin-3-ylmethyl)piperidin-4-yl)-1H-indol-2-yl)-1H-pyrazolo[3,4-b]pyridine]
- IC50 (human TLR7): < 100 nM
- IC50 (human TLR8): < 100 nM
- IC50 (human TLR9): 1000 to 50000 nM

Structure (SMILES): CNC(=O)CN1CCC(c2ccc3[nH]c(-c4cc(C)c5nn(C)cc5c4)c(C(C)C)c3c2)CC1 [Example 378, 2-(4-(2-(2,7-dimethyl-2H-indazol-5-yl)-3-isopropyl-1H-indol-5-yl)piperidin-1-yl)-N-methylacetamide]
- IC50 (human TLR7): < 100 nM
- IC50 (human TLR8): 100 to 1000 nM
- IC50 (human TLR9): 1000 to 50000 nM

Structure (SMILES): Cc1cc2cc(-c3[nH]c4ccc(C5CCN(C(=O)CN(C)C)CC5)cc4c3C(C)C)cc(CC(C)C)n2n1 [Example 524, 2-(dimethylamino)-1-(4-(2-(7-isobutyl-2-methylpyrazolo[1,5-a]pyridin-5-yl)-3-isopropyl-1H-indol-5-yl)piperidin-1-yl)ethan-1-one]
- IC50 (human TLR7): > 3130 nM
- IC50 (human TLR8): > 3130 nM
- IC50 (human TLR9): 1000 to 50000 nM

Structure (SMILES): CC(C)c1c(-c2n[nH]c3ncccc23)[nH]c2ccc(C3CCNCC3)cc12 [Example 18, 3-(3-isopropyl-5-(piperidin-4-yl)-1H-indol-2-yl)-1H-pyrazolo[3,4-b]pyridine]
- IC50 (human TLR7): < 100 nM
- IC50 (human TLR8): < 100 nM
- IC50 (human TLR9): 1000 to 50000 nM

Structure (SMILES): CC(C)c1c(-c2ccnc3[nH]ncc23)[nH]c2ccc(C3CCN(Cc4ccc(OCCCN(C)C)cc4)CC3)cc12 [Example 965, 3-(4-((4-(3-isopropyl-2-(1H-pyrazolo[3,4-b]pyridin-4-yl)-1H-indol-5-yl)piperidin-1-yl)methyl)phenoxy)-N,N-dimethylpropan-1-amine]
- IC50 (human TLR7): < 100 nM
- IC50 (human TLR8): < 100 nM
- IC50 (human TLR9): 100 to 1000 nM

Structure (SMILES): CNC(=O)c1cn2cc(-c3[nH]c4ccc(C5CCNCC5)cc4c3C(C)C)cc(C)c2n1 [Example 264, 6-(3-isopropyl-5-(piperidin-4-yl)-1H-indol-2-yl)-N,8-dimethylimidazo[1,2-a]pyridine-2-carboxamide]
- IC50 (human TLR7): < 100 nM
- IC50 (human TLR8): < 100 nM
- IC50 (human TLR9): 100 to 1000 nM
